Data reported in PubChem BioAssay (NCI).
“And” between values parts separate entries of the source, which are not always exact repeats. Equal values may be shown once.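 Assay format: 96-well plates, 48-hour exposure. GI50 marks 50% less growth. At the TGI there is no net growth.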

Key:
Experiment in all cases: NCI tumour cell line growth inhibition, 48 h
[1] = system: A498 renal
[2] = system: HCT-116 colon
[3] = system: HS 578T breast
[4] = system: NCI-H23 lung
[5] = system: PC-3 prostate
[6] = system: SK-MEL-5 melanoma
[7] = system: SK-OV-3 ovarian
[8] = system: SNB-19 CNS
[9] = system: UACC-62 melanoma
[10] = system: UO-31 renal
[11] = system: SNB-75 CNS

Row | SMILES | TGI [1] | TGI [2] | TGI [3] | TGI [4] | TGI [5] | TGI [6] | TGI [7] | TGI [8] | TGI [9] | TGI [10] | TGI [11] | GI50 [1] | GI50 [5] | GI50 [7]
1 | O=C(O)CO[C@@]12C#C/C=C\C#C[C@@H]3N(C(=O)Oc4ccccc4)c4ccccc4[C@]14O[C@@]34CCC2 | > 100 µM | > 100 µM | 69.4 µM | > 100 µM | > 100 µM | > 100 µM | 19.9 µM | > 100 µM | 26.5 µM | 90 µM |  |  |  | 
2 | CC1C2CC(C(S(=O)(=O)O)C2=O)C1(C)C (stereo not drawn) | > 100 µM | > 100 µM | > 100 µM | > 100 µM | > 100 µM |  | > 100 µM | > 100 µM | > 100 µM | > 100 µM | > 100 µM |  |  | 
3 | Cc1ccc(-n2[nH]nc(C(N)=O)c2=O)cc1 |  | > 100 µM | > 100 µM | > 100 µM | > 100 µM | > 100 µM | > 100 µM | > 100 µM | > 100 µM | > 100 µM | > 100 µM |  |  | 
4 | CNC1(c2cc3ccccc3s2)CCCCC1 | > 100 µM | > 100 µM |  | > 100 µM | 55.5 µM | 36 µM | > 100 µM | > 100 µM | 49 µM | > 100 µM | 99.3 µM |  |  | 
5 | Cc1cc(C)c2c(=O)cc(-c3cccc4ccccc34)[nH]c2n1 | 4.72 µM | > 100 µM | > 100 µM | > 61.6 µM | > 100 µM | 1.74 µM | > 42 µM | > 51.8 µM | > 61.6 µM | > 100 µM |  |  |  | 
6 | O=C(NC1=C(Cl)C(=O)c2ccccc2C1=O)c1ccccc1 |  | 32.2 µM | > 100 µM | 71.7 µM | > 100 µM | 78.9 µM |  | > 100 µM | 90.7 µM |  | > 100 µM |  |  | 
7 | C[C@@H](C(=O)O)N1C(c2ccco2)=C(/C(C=O)=C\c2ccco2)C(=O)/C1=C\c1ccco1 | > 100 µM | > 100 µM | > 100 µM | > 100 µM | > 100 µM | > 100 µM |  | > 100 µM | > 100 µM | > 100 µM |  |  |  | 
8 | CCOC(=O)Nc1cc2c(c(N)n1)N=C(c1ccc(OC)cc1)CN2 | 0.645 µM and 0.972 µM | 1.31 µM | 0.00932 µM |  | 0.0521 µM and 0.48 µM | 0.141 µM | 18.7 µM | 0.659 µM |  |  | 0.277 µM | 178 nM | 1.42 nM | 47.5 nM
9 | C=CCn1c(N)c(C#N)c(C#N)c1CCC | > 100 µM |  | > 100 µM | > 100 µM | > 100 µM | > 100 µM | > 100 µM | > 100 µM | > 100 µM | > 100 µM | > 100 µM |  |  | 
10 | COc1cc2c(cc1OCCCCCCCCCCN1C(=O)c3cccc4cccc(c34)C1=O)N=C[C@@H]1CCCN1C2=O |  | > 100 µM | 75.3 µM | 22.4 µM | 12.3 µM | 22.8 µM | 19.8 µM | 57.6 µM | 24.8 µM | 28.5 µM | 21.3 µM |  |  | 
11 | COc1ccc(CC2COc3cc(OC)cc(OC)c3C2=O)cc1 (stereo not drawn) | > 100 µM | 32.7 µM | 87.3 µM | > 100 µM | > 100 µM | 68 µM | 56.6 µM | > 100 µM | > 100 µM | > 100 µM |  |  |  | 
12 | COc1ccc(/C=C2\N=C(N3CCCCC3)NC2=O)cc1 |  | > 100 µM | > 100 µM | > 100 µM | > 100 µM |  | > 100 µM | > 100 µM | > 100 µM | > 100 µM | > 100 µM |  |  | 
13 | CC1(C)C2CCC1(C)C(N/C(Sc1ccccc1)=C(/C(Cl)=C(Cl)Cl)[N+](=O)[O-])C2 (stereo not drawn) | 28.2 µM | 28.8 µM |  | 27.6 µM | 21.1 µM |  | 34.7 µM | 43.9 µM | 21.3 µM | 26 µM | 30.4 µM |  |  | 
14 | COc1ccc(Cn2c(=O)c(OC)c(C)c3cc4ccccc4cc32)cc1 |  | 43 µM | > 100 µM | 77.5 µM | 49.2 µM | 22.2 µM | > 100 µM | > 100 µM | 69.9 µM | > 100 µM | > 100 µM |  |  | 
15 | Nc1ccccc1CCN1CCN(CCCc2ccccc2)CC1 | > 100 µM | > 100 µM | > 100 µM | > 100 µM | > 100 µM | 32.6 µM | > 100 µM | > 100 µM | > 100 µM | > 100 µM |  |  |  | 
16 | Clc1ccc(CCN(CCc2ccc(Cl)c(Cl)c2)CCN2CCCC2)cc1Cl | 3.23 µM |  | 4.47 µM | 3.42 µM | 2.91 µM | 3.2 µM | 3.49 µM |  | 3.06 µM | 3 µM | 4.73 µM |  |  | 
17 | COc1ccc(Cn2c3c(cc(OC(C)=O)c2=O)Cc2ccccc2-3)cc1 |  | 13.2 µM | > 50 µM | 28.5 µM | 30.2 µM | 41.6 µM | > 50 µM | > 50 µM | 22.3 µM | 15.9 µM | 43.6 µM |  |  | 
18 | COC1(OC)N=C(N)C2(C#N)C(c3ccccc3)NC3=C(CCC3)C12C#N (stereo not drawn) | > 100 µM | > 100 µM | > 100 µM | > 100 µM | > 100 µM | > 100 µM | > 100 µM | > 100 µM | > 100 µM | > 100 µM |  |  |  | 
19 | S=C(N/N=C/c1ccccn1)N1CCCCC1 |  | 10.9 µM | 45.1 µM | > 45.7 µM | > 100 µM | 1.13 µM | > 38.8 µM | > 100 µM | 0.575 µM | 15.2 µM | 0.181 µM |  |  | 
20 | O=C1C2=Cc3ccccc3OC2(O)Oc2cc3ccccc3cc21 (stereo not drawn) | > 100 µM | > 100 µM |  | > 100 µM | > 100 µM | > 100 µM | > 100 µM |  | > 100 µM |  | 73.2 µM |  |  | 
21 | O=C1/C(=C\c2ccc([N+](=O)[O-])cc2)N(S(=O)(=O)c2ccccc2)c2ncccc21 |  | 43.1 µM | 81.3 µM | 42.1 µM | 33.4 µM | 31.4 µM | 19.8 µM | 65 µM | 26 µM | 38.2 µM | 43.1 µM |  |  | 
